Measurements from article PMC3388044, “Probing of Exosites Leads to Novel Inhibitor Scaffolds of HCV NS3/4A Proteinase” (PLoS ONE, 2012).

Experiments:
WNV NS2B-NS3 proteinase = WNV NS2B-NS3 proteinase activity assay (cross-reactivity); type: biochemical, West Nile virus (strain NY99); details: pyroglutamic acid-Arg-Thr-Lys-Arg-7-amino-4-methylcoumarin substrate
Description: (§1) Reagents were purchased from Sigma unless indicated otherwise. The FRET substrate Ac-DE-D(Edans)-EE-Abu-ψ-[COO]-AS-K(Dabsyl)-NH2, purified recombinant wild-type NS3/4A from HCV genotype 1b, strain HC-J4, and the mutants with the V36M, R155K, A156T, D168A and V170A resistance mutations were from AnaSpec (Fremont, CA). The NS3/4A construct represented the individual NS3 proteinase domain N-terminally fused with an NS4A co-factor and tagged with a 6xHis tag. NS3/4A was in active form and the pre-activation by pep-4A or pep4AK was not necessary. Pyroglutamic acid-Arg-Thr-Lys-Arg-7-amino-4-methylcoumarin was from Peptides International (Louisville, KY). West Nile virus NS2B-NS3 proteinase (strain NY99) was expressed, purified and refolded to restore its functional activity as described earlier. The pET15b-Den2-CF40-Gly-NS3pro 185 plasmid encoding the Dengue virus type 2 NS2B-NS3 protease was a kind gift of Dr. Subhash Vasudevan (Program in Emerging Infectious Diseases, DUKE-NUS Graduate Medical School, Singapore). DV NS2B-NS3 proteinase was expressed purified and refolded to restore its functional activity as described previously, [70]. The expression of the soluble C-terminally truncated human furin construct in Sf9 insect cells (an ovarian cell line from fall armyworm Spodoptera frugiperda; Invitrogen, Carlsbad, CA) infected with the recombinant baculovirus and purification of soluble furin from the medium were described earlier. Original human hepatocarcinoma Huh7 cells were obtained from ATCC (Manassas, VA).
(§2) The activity of furin and both WNV and DV2 NS2B-NS3 proteinases (10 nM each) was measured in triplicate in 0.2 ml 20 mM Tris-HCl buffer, pH 8.0, containing 20% glycerol and 0.005% Brij 35 (for furin – 100 mM HEPES, pH 7.5, containing 1 mM CaCl2, 1 mM β-mercaptoethanol and 0.005% Brij 35) and pyroglutamic acid-Arg-Thr-Lys-Arg-7-amino-4-methylcoumarin (10 µM) as a substrate (λex = 360 nm; λem = 465 nm) as described earlier.
(§3) To measure the inhibitory potency of the compounds, their increasing concentrations were pre-incubated with the individual proteinases in the corresponding buffer for 30 min at ambient temperature. At least, 7–9 different concentrations were used for each inhibitor. The residual activity of the enzymes was then measured as above. The IC50 values of the inhibitory compounds were calculated by determining the concentrations of the compounds needed to inhibit 50% of the enzyme activity against the peptide substrate. GraphPad Prism was used as fitting software.

DV2 NS2B-NS3 proteinase = target: T1, DV2 NS2B-NS3 proteinase (Dengue virus type 2, UniProt P29990); assay: DV2 NS2B-NS3 proteinase activity assay (cross-reactivity); type: biochemical; details: pyroglutamic acid-Arg-Thr-Lys-Arg-7-amino-4-methylcoumarin substrate
T1 construct: The pET15b-Den2-CF40-Gly-NS3pro 185 plasmid encoding the Dengue virus type 2 NS2B-NS3 protease; made in house
T1 sequence (P29990 1476-1653): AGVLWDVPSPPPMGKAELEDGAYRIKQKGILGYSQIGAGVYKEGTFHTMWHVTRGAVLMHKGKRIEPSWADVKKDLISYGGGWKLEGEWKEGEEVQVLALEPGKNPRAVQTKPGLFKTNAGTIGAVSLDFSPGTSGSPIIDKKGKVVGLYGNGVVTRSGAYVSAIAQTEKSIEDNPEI
Description: as §1, §2, §3

furin = target: T2, furin (Homo sapiens, UniProt P09958); assay: Furin activity assay (cross-reactivity); type: biochemical; details: pyroglutamic acid-Arg-Thr-Lys-Arg-7-amino-4-methylcoumarin substrate
T2 construct: soluble C-terminally truncated human furin construct in Sf9 insect cells; made in house; host or cells: Sf9 insect cells (baculovirus)
T2 sequence (P09958 108-715 limits assumed): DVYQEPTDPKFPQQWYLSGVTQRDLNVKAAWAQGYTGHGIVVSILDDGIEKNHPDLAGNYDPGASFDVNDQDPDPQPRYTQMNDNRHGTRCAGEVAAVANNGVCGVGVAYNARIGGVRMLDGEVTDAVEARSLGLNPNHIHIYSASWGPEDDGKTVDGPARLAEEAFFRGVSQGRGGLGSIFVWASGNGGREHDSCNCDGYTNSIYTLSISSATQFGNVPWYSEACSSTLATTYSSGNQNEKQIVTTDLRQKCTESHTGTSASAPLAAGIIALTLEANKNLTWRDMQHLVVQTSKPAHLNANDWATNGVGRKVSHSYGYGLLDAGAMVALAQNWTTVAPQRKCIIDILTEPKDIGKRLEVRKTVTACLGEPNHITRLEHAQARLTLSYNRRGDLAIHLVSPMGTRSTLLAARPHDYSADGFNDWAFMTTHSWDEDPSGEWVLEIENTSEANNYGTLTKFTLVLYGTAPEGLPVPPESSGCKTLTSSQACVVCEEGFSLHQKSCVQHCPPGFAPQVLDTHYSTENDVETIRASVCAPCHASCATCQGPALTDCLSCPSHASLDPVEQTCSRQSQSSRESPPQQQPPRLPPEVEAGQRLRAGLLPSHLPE
Description: as §1, §2, §3

Huh7 ET cells = details: for CC50: read-out: HCV replicon CC50, concentration reducing cell viability by 50%, 72 h; for CC90: read-out: HCV replicon CC90, concentration reducing cell viability by 90%, 72 h
Experimental: Both cell toxicity and HCV replicon inhibition assays were performed in triplicate in wells of a 96-well flat-bottom, white-wall plates (E&K Scientific, Santa Clara, CA) by the Drug Development Division, Southern Research Institute (SRI; Birmingham, AL). […] Prior to the assays, sub-confluent Huh7 ET cultures were seeded in wells of a 96-well plate. Following a 24 h incubation at 37°C in a 5% CO2 incubator, increasing concentrations of the compounds were added to the wells and incubation was continued for an additional 72 h. […] Human interferon α2b was used as a control. The cellular replicon-derived luciferase activity was measured using the Steady-Glo Luciferase Assay System (Promega, Fitchburg, WI) and a fluorescence spectrophotometer. Cytotoxicity of compounds was measured using the CytoTox-ONE Homogeneous Membrane Integrity Assay (Promega). The IC50 and IC90 values of the compounds (compound concentrations inhibiting the replicon by 50% and 90%, respectively) as well as CC50 and CC90 (compound concentration decreasing cell viability by 50% and 90%, respectively) were calculated using GraphPad Prism.

NS3/4A V170A = assay: NS3/4A activity assay, V170A mutant; type: biochemical, HCV genotype 1b, strain HC-J4; details: for NS3/4A V170A FC: fold change in IC50 for the mutant compared to WT; for IC50: recombinant V170A mutant, FRET peptide substrate
Description: as §1, with “NS3/4A was in active form and the pre-activation by pep-4A or pep4AK was not necessary.” left out
The NS3/4A activity assay was performed at 37°C in triplicate in wells of a 96-well plate in 0.2 ml 50 mM HEPES, pH 7.5, containing 100 mM NaCl, 10 mM DTT, 20% glycerol, the Ac-DE-D(Edans)-EE-Abu-ψ-[COO]-AS-K(Dabsyl)-NH2 substrate (10 µM) and the NS3/4A enzyme (10 nM). Reaction velocity was monitored continuously at λex = 355 nm and λem = 500 nm for 10 min using a Spectramax Gemini EM fluorescence spectrophotometer (Molecular Devices, Sunnyvale, CA) and the initial rate of reaction v was recorded for each reaction. […] Compound stock solutions (10 mM) were made in 100% DMSO. Stocks were then diluted using the assay buffer. As a result, the final DMSO concentration was always below 1% in the assay reactions.
as §3

SMILES: O=C(Nc1ccccc1)c1cc(S(=O)(=O)Nc2nc3ncccc3[nH]2)c(SSc2cc(Cl)c(C(=O)Nc3ccccc3)cc2S(=O)(=O)Nc2nc3ncccc3[nH]2)cc1Cl [Compound 1]
- IC50 (WNV NS2B-NS3 proteinase): 21.9 µM
- IC50 (DV2 NS2B-NS3 proteinase): 19.7 µM
- IC50 (furin): > 100 µM
- CC50 (Huh7 ET cells): > 100 µM
- CC90 (Huh7 ET cells): > 100 µM
- NS3/4A V170A FC (NS3/4A V170A): 2.2
- IC50 (NS3/4A V170A): 0.4 µM

SMILES: Clc1ccc(OCc2nn3c(CCc4nnc5sc(COc6ccc(Cl)cc6)nn45)nnc3s2)cc1 [Compound 2]
- IC50 (WNV NS2B-NS3 proteinase): > 100 µM
- IC50 (DV2 NS2B-NS3 proteinase): > 100 µM
- IC50 (furin): > 100 µM
- CC50 (Huh7 ET cells): 9.99 µM
- CC90 (Huh7 ET cells): 22.1 µM
- NS3/4A V170A FC (NS3/4A V170A): 6
- IC50 (NS3/4A V170A): 1.8 µM

SMILES: Cc1n[nH]c(=S)n1Nc1nc(SCc2ccccc2)nc2n[nH]c(Cc3nn[nH]n3)c12 [Compound 3]
- IC50 (WNV NS2B-NS3 proteinase): 18.2 µM
- IC50 (DV2 NS2B-NS3 proteinase): 34.5 µM
- IC50 (furin): > 100 µM
- CC50 (Huh7 ET cells): > 100 µM
- CC90 (Huh7 ET cells): > 100 µM
- NS3/4A V170A FC (NS3/4A V170A): 5.5
- IC50 (NS3/4A V170A): 1.97 µM

SMILES: Oc1ccccc1-c1nnc2sc3c(Cl)c4nn5c(-c6ccccc6O)nnc5sc4c(Cl)c3nn12 [Compound 4]
- IC50 (WNV NS2B-NS3 proteinase): 3.7 µM
- IC50 (DV2 NS2B-NS3 proteinase): 14.3 µM
- IC50 (furin): 12.8 µM
- CC50 (Huh7 ET cells): > 100 µM
- CC90 (Huh7 ET cells): > 100 µM
- NS3/4A V170A FC (NS3/4A V170A): 2.2
- IC50 (NS3/4A V170A): 0.8 µM

SMILES: Clc1ccc(Nc2nc(SCc3ccccc3)nc3n[nH]c(Cc4nc5ccccc5s4)c23)cc1 [Compound 5]
- IC50 (WNV NS2B-NS3 proteinase): 23.7 µM
- IC50 (DV2 NS2B-NS3 proteinase): 49.4 µM
- IC50 (furin): > 100 µM
- CC50 (Huh7 ET cells): > 100 µM
- CC90 (Huh7 ET cells): > 100 µM
- NS3/4A V170A FC (NS3/4A V170A): 16.6
- IC50 (NS3/4A V170A): 6.29 µM

SMILES: S=c1[nH]nc(Nc2nc(SCc3ccccc3)nc3n[nH]c(Cc4nn[nH]n4)c23)s1 [Compound 6]
- IC50 (WNV NS2B-NS3 proteinase): 12.7 µM
- IC50 (DV2 NS2B-NS3 proteinase): 20.6 µM
- IC50 (furin): 66.8 µM
- CC50 (Huh7 ET cells): > 100 µM
- CC90 (Huh7 ET cells): > 100 µM
- NS3/4A V170A FC (NS3/4A V170A): 0.98
- IC50 (NS3/4A V170A): 0.93 µM

SMILES: S=c1[nH]n2c(COc3cc(Cl)c(OCc4nnc5sc(=S)[nH]n45)cc3Cl)nnc2s1 [Compound 7]
- IC50 (WNV NS2B-NS3 proteinase): 39.1 µM
- IC50 (DV2 NS2B-NS3 proteinase): > 100 µM
- IC50 (furin): > 100 µM
- CC50 (Huh7 ET cells): 86.8 µM
- CC90 (Huh7 ET cells): 96.3 µM
- NS3/4A V170A FC (NS3/4A V170A): 1.2
- IC50 (NS3/4A V170A): 1.52 µM

SMILES: COc1cc(C2C(C(=O)Nc3ccc(Cl)c(Cl)c3)=C(C)NC(C)=C2C(=O)Nc2ccc(Cl)c(Cl)c2)ccc1O [Compound 8]
- IC50 (WNV NS2B-NS3 proteinase): 21.8 µM
- IC50 (DV2 NS2B-NS3 proteinase): 38.8 µM
- IC50 (furin): 27 µM
- CC50 (Huh7 ET cells): 14.2 µM
- CC90 (Huh7 ET cells): 26.6 µM
- NS3/4A V170A FC (NS3/4A V170A): 1.5
- IC50 (NS3/4A V170A): 2.92 µM
